Source: PMC8600295, “Inhibition of iduronic acid biosynthesis by ebselen reduces glycosaminoglycan accumulation in mucopolysaccharidosis type I fibroblasts” (Glycobiology, 2021)

How the values were obtained:
Assay type in all cases: biochemical
[1] = molecular target: T1, D4ST1 (DS 4-O-sulfotransferase 1) (Homo sapiens, UniProt Q8NCH0); test: sulfotransferase activity assay ([…]PAPS incorporation) with recombinant enzyme
T1 construct: gene CHST14; D4ST1-HIS (amino acid 61–376)
T1 sequence (Q8NCH0 61-376): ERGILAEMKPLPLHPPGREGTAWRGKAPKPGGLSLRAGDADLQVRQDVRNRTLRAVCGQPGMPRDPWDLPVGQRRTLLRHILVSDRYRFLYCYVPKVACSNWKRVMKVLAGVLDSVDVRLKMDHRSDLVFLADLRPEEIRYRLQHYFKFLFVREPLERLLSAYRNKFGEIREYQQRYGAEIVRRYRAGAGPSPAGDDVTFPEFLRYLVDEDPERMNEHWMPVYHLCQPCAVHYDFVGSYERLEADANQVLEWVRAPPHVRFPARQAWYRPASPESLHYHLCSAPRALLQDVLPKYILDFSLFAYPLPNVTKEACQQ

[2] = molecular target: T2, HSepi (heparan sulfate glucuronyl C5-epimerase) (Homo sapiens, UniProt O94923); test: epimerase activity assay (3H release from [[…]-3H]-N-sulfated K5 polysaccharide) with recombinant enzyme
T2 construct: gene GLCE; full-length, myc-HIS fusion
T2 sequence (O94923 1-617): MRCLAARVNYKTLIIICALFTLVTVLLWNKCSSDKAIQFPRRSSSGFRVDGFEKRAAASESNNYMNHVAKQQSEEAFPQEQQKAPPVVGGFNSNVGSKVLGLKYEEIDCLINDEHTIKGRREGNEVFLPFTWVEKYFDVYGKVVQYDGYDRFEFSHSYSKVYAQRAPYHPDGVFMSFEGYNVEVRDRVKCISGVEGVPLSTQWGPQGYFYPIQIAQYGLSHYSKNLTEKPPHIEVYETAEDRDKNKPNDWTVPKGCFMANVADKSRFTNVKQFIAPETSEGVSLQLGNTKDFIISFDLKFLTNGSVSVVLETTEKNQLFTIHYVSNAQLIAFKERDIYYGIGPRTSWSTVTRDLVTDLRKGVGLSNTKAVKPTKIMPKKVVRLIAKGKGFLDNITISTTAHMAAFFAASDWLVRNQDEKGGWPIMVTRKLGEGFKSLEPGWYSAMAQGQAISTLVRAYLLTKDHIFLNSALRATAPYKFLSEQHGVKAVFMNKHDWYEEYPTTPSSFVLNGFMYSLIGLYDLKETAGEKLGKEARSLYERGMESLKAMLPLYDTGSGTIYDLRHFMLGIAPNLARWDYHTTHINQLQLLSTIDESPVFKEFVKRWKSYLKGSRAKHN

DS-epi1 (DS-epimerase 1) = molecular target: T3, DS-epi1 (DS-epimerase 1) (Homo sapiens, UniProt Q9UL01); test: epimerase activity assay (3H release from [[…]-3H]dK4) with recombinant enzyme; dialysis irreversibility test; Lineweaver-Burk kinetics
T3 construct: gene DSE; truncated form (amino acid 23–775-HIS)

For O=c1c2ccccc2[se]n1-c1ccccc1 [ebselen, 2-phenyl-1,2-benzoisoselenazol-3(2H)-one], the IC50 [1] was 1.5 µM, the IC50 [2] was 0.8 µM and the IC50 (DS-epi1 (DS-epimerase 1)) was 7 µM.
